Measurements reported in ChEMBL document CHEMBL1201862, “PubChem BioAssay data set” (2004).
Calls of active or inactive are those of the source.

Tests used:
Caspase-3 = biological target: T1, Caspase-3 (Homo sapiens, UniProt P42574); assay type: functional;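 note: Dose-response selectivity test against caspase-3 for candidate inhibitors of sentrin-specific proteases (SENPs)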
T1 sequence (P42574 whole entry): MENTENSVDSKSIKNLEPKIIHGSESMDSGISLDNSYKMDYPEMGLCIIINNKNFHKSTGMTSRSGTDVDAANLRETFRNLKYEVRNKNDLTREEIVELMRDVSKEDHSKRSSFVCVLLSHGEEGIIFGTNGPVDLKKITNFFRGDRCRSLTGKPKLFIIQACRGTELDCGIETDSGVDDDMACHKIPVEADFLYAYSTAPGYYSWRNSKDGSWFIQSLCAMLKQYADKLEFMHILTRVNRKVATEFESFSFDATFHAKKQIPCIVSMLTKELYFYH

[1] = biological target: T2, Sentrin-specific protease 7 (Homo sapiens, UniProt Q9BQF6); assay type: functional;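 note: Luminescence-based dose-response confirmation of ultra-high-throughput screening hits, measuring inhibition of SENP7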
T2 sequence (Q9BQF6 whole entry): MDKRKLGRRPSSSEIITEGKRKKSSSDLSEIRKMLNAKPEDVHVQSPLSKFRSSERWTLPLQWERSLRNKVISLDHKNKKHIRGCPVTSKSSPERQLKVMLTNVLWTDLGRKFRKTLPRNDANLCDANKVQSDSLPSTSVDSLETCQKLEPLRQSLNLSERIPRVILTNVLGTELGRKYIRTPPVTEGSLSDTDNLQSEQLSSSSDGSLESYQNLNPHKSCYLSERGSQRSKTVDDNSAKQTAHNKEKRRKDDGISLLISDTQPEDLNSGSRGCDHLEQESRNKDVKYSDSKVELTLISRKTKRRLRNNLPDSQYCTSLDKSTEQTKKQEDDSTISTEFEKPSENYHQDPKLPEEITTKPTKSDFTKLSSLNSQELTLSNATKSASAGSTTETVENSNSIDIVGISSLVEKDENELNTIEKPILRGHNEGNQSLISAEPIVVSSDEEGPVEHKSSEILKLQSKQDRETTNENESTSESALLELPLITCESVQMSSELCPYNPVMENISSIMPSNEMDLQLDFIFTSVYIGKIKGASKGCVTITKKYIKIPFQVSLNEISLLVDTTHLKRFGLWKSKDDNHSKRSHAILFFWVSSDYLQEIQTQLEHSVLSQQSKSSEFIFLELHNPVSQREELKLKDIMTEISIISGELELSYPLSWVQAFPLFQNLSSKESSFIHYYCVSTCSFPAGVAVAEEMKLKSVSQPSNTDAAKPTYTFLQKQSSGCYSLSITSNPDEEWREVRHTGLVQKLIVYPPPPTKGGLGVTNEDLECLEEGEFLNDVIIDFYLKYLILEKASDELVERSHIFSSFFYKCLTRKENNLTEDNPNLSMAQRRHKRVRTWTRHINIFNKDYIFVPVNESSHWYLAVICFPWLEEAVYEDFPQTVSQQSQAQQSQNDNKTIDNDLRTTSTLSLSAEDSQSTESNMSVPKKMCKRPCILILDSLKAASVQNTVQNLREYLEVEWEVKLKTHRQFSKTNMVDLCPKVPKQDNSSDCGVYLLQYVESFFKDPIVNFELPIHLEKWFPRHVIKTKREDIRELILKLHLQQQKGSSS

[2] = biological target: T3, Sentrin-specific protease 6 (Homo sapiens, UniProt Q9GZR1); assay type: functional;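 note: Luminescence-based dose-response confirmatory assay of SENP6 inhibition, following up an ultra-high-throughput screen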
T3 sequence (Q9GZR1 whole entry): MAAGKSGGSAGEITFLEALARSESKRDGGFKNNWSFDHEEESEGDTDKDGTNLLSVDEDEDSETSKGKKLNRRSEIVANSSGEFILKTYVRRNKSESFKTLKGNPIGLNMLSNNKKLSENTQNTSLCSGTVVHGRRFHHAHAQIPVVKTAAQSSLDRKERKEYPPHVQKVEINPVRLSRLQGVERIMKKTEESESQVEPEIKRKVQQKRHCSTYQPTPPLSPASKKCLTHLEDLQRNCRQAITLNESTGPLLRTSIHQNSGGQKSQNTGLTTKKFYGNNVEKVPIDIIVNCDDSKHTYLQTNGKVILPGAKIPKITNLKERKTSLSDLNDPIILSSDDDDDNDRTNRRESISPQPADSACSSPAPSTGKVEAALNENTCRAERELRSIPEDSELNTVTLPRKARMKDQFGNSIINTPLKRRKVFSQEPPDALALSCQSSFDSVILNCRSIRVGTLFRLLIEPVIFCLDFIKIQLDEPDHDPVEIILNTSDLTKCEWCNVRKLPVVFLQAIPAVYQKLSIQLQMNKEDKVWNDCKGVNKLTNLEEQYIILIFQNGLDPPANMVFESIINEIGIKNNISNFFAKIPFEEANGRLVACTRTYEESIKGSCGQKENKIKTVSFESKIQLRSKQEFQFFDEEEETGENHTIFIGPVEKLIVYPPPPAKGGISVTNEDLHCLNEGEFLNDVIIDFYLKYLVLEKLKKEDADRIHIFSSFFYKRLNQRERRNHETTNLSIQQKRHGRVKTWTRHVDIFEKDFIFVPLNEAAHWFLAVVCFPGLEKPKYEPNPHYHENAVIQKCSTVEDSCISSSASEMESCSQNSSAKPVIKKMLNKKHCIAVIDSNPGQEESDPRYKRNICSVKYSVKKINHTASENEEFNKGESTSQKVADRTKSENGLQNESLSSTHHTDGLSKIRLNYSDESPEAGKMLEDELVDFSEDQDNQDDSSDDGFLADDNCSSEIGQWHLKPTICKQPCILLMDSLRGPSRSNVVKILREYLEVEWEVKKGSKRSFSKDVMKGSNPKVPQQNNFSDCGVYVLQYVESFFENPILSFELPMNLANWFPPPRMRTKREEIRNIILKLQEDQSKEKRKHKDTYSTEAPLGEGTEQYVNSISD

[3] = biological target: T4, Sentrin-specific protease 8 (Homo sapiens, UniProt Q96LD8); assay type: functional;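 note: luminescence read-out of SENP8 inhibition, dose-response confirmation following an ultra-high-throughput screen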
T4 sequence (Q96LD8 whole entry): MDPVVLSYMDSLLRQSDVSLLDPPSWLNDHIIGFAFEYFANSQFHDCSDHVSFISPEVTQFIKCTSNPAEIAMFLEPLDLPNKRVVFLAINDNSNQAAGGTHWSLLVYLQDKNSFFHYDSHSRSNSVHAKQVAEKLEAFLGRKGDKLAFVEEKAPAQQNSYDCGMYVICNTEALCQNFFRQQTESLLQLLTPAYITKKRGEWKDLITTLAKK

HeLa = assay: HeLa cell cytotoxicity, dose response, cytotoxicity control for MITF activator project, CellTiter-Glo luminescence, cherry-pick samples (AID 540259); assay type: functional, cell-based; settings: Homo sapiens
Beta-galactosidase = Beta-galactosidase (Escherichia coli, UniProt Q8VNN2); assay: PubChem AID 485352; assay type: functional
[4] = biological target: T5, Type-1 angiotensin II receptor (Homo sapiens, UniProt P30556); assay: AT1 receptor antagonists, dose response, selectivity assay for APJ receptor antagonist project, cell-based, uHTS hits (AID 463214); assay type: functional;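 note: antagonist potency against angiotensin II stimulated AT1 response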
T5 sequence (P30556 whole entry): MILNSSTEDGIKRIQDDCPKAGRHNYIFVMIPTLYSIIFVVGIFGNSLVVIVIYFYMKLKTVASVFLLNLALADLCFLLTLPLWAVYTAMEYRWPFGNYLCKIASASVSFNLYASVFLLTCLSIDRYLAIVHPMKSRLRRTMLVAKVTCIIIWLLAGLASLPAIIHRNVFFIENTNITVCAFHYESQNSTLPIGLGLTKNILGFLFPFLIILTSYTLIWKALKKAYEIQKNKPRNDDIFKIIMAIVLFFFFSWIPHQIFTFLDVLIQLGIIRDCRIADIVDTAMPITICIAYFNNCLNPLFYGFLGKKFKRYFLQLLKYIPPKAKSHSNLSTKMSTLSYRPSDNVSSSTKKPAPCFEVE

HEK293 = assay: cells; assay type: functional, cell-based; settings: Homo sapiens
[5] = biological target: T6, Nuclear receptor subfamily 0 group B member 1 (Homo sapiens, UniProt P51843); assay: Luminescence-based cell-based high throughput dose response assay for inhibitors of the orphan nuclear receptor subfamily 0, group B, member 1 (DAX1; NR0B1). [Related pubchem assays (depositor defined):AID504766, AID504790]; assay type: functional
T6 sequence (P51843 whole entry): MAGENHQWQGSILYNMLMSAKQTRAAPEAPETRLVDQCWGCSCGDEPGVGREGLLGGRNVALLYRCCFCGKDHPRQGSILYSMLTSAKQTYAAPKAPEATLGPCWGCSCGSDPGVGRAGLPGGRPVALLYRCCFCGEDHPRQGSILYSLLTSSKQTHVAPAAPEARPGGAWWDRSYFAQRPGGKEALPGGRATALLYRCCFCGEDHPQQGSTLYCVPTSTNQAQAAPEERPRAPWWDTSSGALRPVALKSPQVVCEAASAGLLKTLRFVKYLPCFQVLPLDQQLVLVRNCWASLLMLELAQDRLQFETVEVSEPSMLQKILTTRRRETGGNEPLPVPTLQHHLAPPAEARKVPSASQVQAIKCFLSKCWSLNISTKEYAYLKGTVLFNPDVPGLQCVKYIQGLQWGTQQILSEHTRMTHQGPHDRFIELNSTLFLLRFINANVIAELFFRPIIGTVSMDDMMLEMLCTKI

Cysteine protease ATG4B = biological target: T7, Cysteine protease ATG4B (Homo sapiens, UniProt Q9Y4P1); assay type: functional;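 note: Fluorescence-based dose-response confirmation assay measuring inhibition of ATG4B activity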
T7 sequence (Q9Y4P1 whole entry): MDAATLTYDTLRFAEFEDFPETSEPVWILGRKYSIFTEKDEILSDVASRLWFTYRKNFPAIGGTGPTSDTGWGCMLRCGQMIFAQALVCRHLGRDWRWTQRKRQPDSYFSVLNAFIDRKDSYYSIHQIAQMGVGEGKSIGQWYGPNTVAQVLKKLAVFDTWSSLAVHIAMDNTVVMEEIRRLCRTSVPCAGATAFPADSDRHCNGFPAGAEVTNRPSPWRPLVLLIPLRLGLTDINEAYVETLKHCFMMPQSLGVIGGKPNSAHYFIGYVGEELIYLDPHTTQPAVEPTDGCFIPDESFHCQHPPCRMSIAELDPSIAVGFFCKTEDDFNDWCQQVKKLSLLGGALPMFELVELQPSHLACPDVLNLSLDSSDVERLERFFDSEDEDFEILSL

Phospholipase A2 = Phospholipase A2 (Homo sapiens, UniProt P04054); assay type: functional;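 note: confirmatory dose-response counterscreen on phospholipase A2, testing hits that came from an ultra-high-throughput screen for ATG4B inhibitors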
Cytochrome P450 2D6 = Cytochrome P450 2D6 (Homo sapiens, UniProt P10635);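 note: CYP2D6 member of a cytochrome P450 panel assay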
Cytochrome P450 3A4 = Cytochrome P450 3A4 (Homo sapiens, UniProt P08684);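 note: CYP3A4 tested as one member of a cytochrome P450 panel screen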
[6] = biological target: T8, Endoribonuclease toxin MazF (Escherichia coli K-12, UniProt P0AE70); assay: MazF toxin RNase activators, dose response, biochemical, fluorescence, single-stranded RNA substrate, uHTS hits (AID 588481); assay type: functional
T8 sequence (P0AE70 whole entry): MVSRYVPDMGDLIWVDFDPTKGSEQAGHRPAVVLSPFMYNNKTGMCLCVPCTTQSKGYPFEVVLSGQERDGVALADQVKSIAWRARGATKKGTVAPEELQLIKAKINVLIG

[7] = biological target: T8, Endoribonuclease toxin MazF; assay: fluorescent RNA oligo signal without MazF, dose response, counter-screen for MazEF activator project, biochemical, fluorescence, single-stranded RNase substrate (AID 588502); assay type: functional

Chain of Phospholipase A2 (P04054 whole entry): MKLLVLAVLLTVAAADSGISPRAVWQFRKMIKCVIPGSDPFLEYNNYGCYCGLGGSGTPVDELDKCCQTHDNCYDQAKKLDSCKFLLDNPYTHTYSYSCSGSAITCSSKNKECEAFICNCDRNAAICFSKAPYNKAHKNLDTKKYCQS
Chain of Beta-galactosidase (Q8VNN2 whole entry): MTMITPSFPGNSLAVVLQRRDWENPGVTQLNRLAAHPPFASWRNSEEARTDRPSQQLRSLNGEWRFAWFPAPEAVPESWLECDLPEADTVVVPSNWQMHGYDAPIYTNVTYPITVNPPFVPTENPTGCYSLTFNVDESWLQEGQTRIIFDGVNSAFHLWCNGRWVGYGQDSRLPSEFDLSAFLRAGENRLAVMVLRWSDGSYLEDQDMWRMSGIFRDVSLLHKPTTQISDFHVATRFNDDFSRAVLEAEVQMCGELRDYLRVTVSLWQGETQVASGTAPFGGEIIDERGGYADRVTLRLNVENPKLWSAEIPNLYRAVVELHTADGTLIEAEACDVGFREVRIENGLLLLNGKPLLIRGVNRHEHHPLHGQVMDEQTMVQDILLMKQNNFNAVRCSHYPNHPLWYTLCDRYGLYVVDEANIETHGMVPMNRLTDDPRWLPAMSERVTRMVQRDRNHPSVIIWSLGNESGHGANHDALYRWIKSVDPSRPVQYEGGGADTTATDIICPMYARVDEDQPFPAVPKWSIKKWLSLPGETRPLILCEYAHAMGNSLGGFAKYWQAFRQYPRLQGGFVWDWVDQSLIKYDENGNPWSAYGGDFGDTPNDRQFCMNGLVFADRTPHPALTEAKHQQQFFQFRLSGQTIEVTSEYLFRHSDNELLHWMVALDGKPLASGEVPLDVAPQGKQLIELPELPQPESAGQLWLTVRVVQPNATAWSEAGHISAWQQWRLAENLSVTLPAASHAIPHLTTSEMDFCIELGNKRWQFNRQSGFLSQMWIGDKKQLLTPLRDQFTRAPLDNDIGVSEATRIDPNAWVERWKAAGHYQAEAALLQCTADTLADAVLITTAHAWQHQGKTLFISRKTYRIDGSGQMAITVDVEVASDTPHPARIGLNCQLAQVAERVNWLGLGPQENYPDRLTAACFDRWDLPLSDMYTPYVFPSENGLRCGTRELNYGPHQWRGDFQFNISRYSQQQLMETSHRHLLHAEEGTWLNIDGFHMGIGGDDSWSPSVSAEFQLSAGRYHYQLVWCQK
Chain of Cytochrome P450 2D6 (P10635 whole entry): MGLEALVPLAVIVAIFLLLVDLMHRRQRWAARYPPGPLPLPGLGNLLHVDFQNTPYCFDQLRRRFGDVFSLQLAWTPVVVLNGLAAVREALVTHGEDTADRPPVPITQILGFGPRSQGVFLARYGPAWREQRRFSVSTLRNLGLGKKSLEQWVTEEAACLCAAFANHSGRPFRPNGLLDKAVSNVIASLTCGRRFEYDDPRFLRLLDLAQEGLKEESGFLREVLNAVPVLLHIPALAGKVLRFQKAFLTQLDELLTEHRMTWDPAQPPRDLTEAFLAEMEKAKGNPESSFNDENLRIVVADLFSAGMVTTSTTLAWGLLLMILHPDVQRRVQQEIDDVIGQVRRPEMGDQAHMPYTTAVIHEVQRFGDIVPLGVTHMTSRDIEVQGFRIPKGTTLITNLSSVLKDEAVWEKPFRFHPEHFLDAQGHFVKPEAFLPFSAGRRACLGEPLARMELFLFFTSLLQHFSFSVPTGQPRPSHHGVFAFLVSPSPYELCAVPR
Chain of Cytochrome P450 3A4 (P08684 whole entry): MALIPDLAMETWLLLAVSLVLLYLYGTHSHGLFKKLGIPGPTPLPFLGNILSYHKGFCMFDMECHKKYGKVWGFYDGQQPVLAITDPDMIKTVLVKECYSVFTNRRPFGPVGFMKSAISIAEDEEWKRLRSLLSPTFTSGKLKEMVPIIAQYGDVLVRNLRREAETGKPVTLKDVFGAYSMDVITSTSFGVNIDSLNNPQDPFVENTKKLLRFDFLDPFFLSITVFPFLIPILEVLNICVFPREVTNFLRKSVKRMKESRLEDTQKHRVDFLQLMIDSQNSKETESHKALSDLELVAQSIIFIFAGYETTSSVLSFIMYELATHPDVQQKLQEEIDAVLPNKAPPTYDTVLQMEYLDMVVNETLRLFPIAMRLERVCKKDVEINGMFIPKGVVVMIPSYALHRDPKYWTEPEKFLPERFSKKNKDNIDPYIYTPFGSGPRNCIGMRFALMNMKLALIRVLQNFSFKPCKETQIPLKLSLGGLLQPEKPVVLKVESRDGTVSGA

## Cc1ccc(C)c(NC(=O)c2cc(-c3cc(C)ccc3O)[nH]n2)c1
Caspase-3
  IC50: 22.3 µM (active)
[1]
  IC50: 5.17 µM (active)
[2]
  IC50: > 100 µM (inactive)
[3]
  IC50: > 100 µM (inactive)
HeLa
  AC50: 41.9 µM (active)

## Cc1ccc(C(=O)COC(=O)CNC(=O)c2ccc(Br)o2)cc1[N+](=O)[O-]
Beta-galactosidase
  EC50: > 40 µM (inactive)
[4]
  IC50: > 40 µM (not active)

## Cc1noc(C)c1S(=O)(=O)N1CCN(S(=O)(=O)c2ccccc2C#N)CC1
HEK293
  IC50: > 67.5 µM (inactive)
[5]
  IC50: > 67.5 µM (inactive)

## CCCC(=O)NC(=S)Nc1cccc(Cl)c1N1CCCCC1
Cysteine protease ATG4B
  IC50: 9.11 µM (active)
Phospholipase A2
  IC50: 6.52 µM (active)

## Cc1cc(C)c(NC(=O)C2CCCN2C)c(C)c1 (stereo not given)
HEK293
  IC50: > 67.3 µM (inactive)
[5]
  IC50: > 67.3 µM (inactive)
Cytochrome P450 2D6
  AC50: 28.2 µM (inconclusive)
Cytochrome P450 3A4
  AC50: 25.1 µM (inconclusive)

## FC(F)(F)c1cnc(NNC(=S)Nc2cccnc2)c(Cl)c1
Beta-galactosidase
  EC50: > 40 µM (inactive)
[4]
  IC50: 15.1 µM (active)

## O=C(COC(=O)c1cnccn1)c1ccc(Cl)c([N+](=O)[O-])c1
Beta-galactosidase
  EC50: > 40 µM (inactive)
[4]
  IC50: 12.5 µM (active)

## Cc1ccc(C(=O)NN=C(S)Nc2cccc(Cl)c2Cl)cc1[N+](=O)[O-]
Cysteine protease ATG4B
  IC50: 20.8 µM (inactive)
Phospholipase A2
  IC50: 13.3 µM (active)

## COc1ccc(C)cc1Nc1n[n+](-c2ccccc2)c(-c2cc([N+](=O)[O-])cc(OC)c2O)s1
[6]
  EC50: 23.5 µM (inactive)
[7]
  EC50: 58.4 µM (inactive)

## CCC(C)N(C(=O)COc1ccc(Br)cc1C=O)C1CCS(=O)(=O)C1 (stereo not given)
Cysteine protease ATG4B
  IC50: 10.1 µM (active)
Phospholipase A2
  IC50: 8.26 µM (active)
